Results on seven molecules are retold here after patent US20230357179A1, “RAF KINASE INHIBITORS AND METHODS OF USE THEREOF” (Deciphera Pharmaceuticals, LLC, priority 2021, published 2023).

Some results are limits rather than exact numbers.

Usually IC50 stands for the concentration at which inhibition is half-maximal.

One assay deals with Miapaca-2 cells. As to the kind of experiment: MiaPaca-2 combination cell proliferation assay (1) with cobimetinib, 96-well. The class given is cell-based. The conditions noted are these: inhibition of cell proliferation, read-out: MiaPaca-2 Combo (1) IC50. Here is the method: MiaPaca-2 Combination Cell proliferation Assay (1)
Miapaca-2 cells (catalog #CRL-1420) are obtained from the American Type Culture Collect (ATCC, Manassas, VA). Briefly, cells were grown in DMEM supplemented with 10% characterized fetal bovine serum (Invitrogen, Carlsbad, CA), 2.5% New Zealand sourced horse serum and 1% Penicillin/Streptomycin/L-Glutamine at 37° C., 5% CO2, and 95% humidity. Cells are expanded until reaching 70-95% confluency at which point they are subcultured or harvested for assay use. A serial dilution of test compound was dispensed into multiple 96-well black clear bottom plates in triplicate. A serial dilution of complete growth medium containing cobimetinib was prepared at twice the final concentration and 100 μL was dispensed across the test compound titration in triplicate. Three thousand cells are added per well in 100 μL complete growth medium in each 96-well plate. Plates are incubated for 67-72 hours at 37° C., 5% CO2, and 95% humidity. At the end of the incubation, 40 μL of a 440 μM solution of resazurin (Sigma, St. Louis, MO) in PBS is added to each well of the plate and plates are incubated for an additional 5-7 hours at 37° C., 5% CO2, and 95% humidity. Plates are read on a Synergy2 or equivalent reader (Biotek, Winooski VT) using an excitation of 540 nm and an emission of 600 nm. Drug synergy was assessed via BLISS analysis in the Combenefit software (Cancer Research UK Cambridge Institute, Cambridge, UK). Data is analyzed using Prism software (GraphPad, San Diego, CA) to calculate IC50 values. Shifts in test compound IC50 values are reported from top-constrained combination therapy curves.
For `Cc1ccc(NC(=O)Nc2cccc(C(F)(F)F)c2)cc1-c1cc(OCCO)nc(N2CCOCC2)c1` [Example 3, 1-(3-(2-(2-hydroxyethoxy)-6-morpholinopyridin-4-yl)-4-methylphenyl)-3-(3-(trifluoromethyl)phenyl)urea], the IC50 is no more than 0.1 µM. The same measure, in the same setting: as for `Cc1cc(F)c(NC(=O)NCCC(C)(C)C)cc1-c1cc(OCCO)nc(C2=CCOCC2)c1` [Example 7], the figure is no more than 0.1 µM; as for `Cc1ncc(NC(=O)NCCC2(C)CC2)cc1-c1cc(OCCO)nc(-c2ccnc(NC(=O)C3CC3)c2)c1` [Example 113], no more than 0.1 µM.

The next assay deals with WM3629 cells. As to the kind of experiment: WM3629 cell proliferation assay (1), resazurin, 96-well. The class given is cell-based. The note with it: inhibition of cell proliferation. On the procedure:
WM3629 Cell Proliferation Assay (1)
WM3629 cells (#WM3629-01-0001) are obtained from Rockland Immunochemicals Inc (Gilbertsville, PA). Briefly, cells were grown in MCDB 153 medium (Sigma, #M7403, St. Louis, MO) supplemented with 20% Leibovitz's L-15 (ThermoFisher #11415-064, Waltham, MA), 2% heat inactivated fetal bovine serum (ThermoFisher, #A3840001, Waltham, MA), 5 μg/mL Insulin (Bovine Pancreas) (Sigma, #I0516, St. Louis, MO), 1.68 mM Calcium Chloride (Sigma, #C-34006, St. Louis, MO) and 1% Penicillin/Streptomycin/L-Glutamine (ThermoFisher #10378016, Waltham, MA) at 37° C., 5% CO2, and 95% humidity. Cells are expanded until reaching 70-95% confluency at which point they are subcultured or harvested for assay use. A serial dilution of test compound is dispensed into a 96-well black clear bottom plate in triplicate. Four thousand five hundred cells are added per well in 200 μL complete growth medium in the 96-well plate. Plates are incubated for 67-72 hours at 37° C., 5% CO2, and 95% humidity. At the end of the incubation, 40 μL of a 440 μM solution of resazurin (Sigma, #199303, St. Louis, MO) in PBS is added to each well of the plate and plates are incubated for an additional 6-7 hours at 37° C., 5% CO2, and 95% humidity. Plates are read on a Synergy2 or equivalent reader (Biotek, Winooski VT) using an excitation of 540 nm and an emission of 600 nm. Data is analyzed using Prism software (GraphPad, San Diego, CA) to calculate IC50 values.
A general note: Resazurin is reduced to fluorescent resorufin, in cell work by metabolically active cells.
On to `Cc1ncc(NC(=O)NCCC2(C)CC2)cc1-c1ccnc(-c2ccnc(NC(=O)C3CC3)c2)n1` [Example 107], for which the IC50 is no more than 0.1 µM. Still for that read-out and setting: as for `COC(=O)Nc1cc(-c2cc(-c3cc(NC(=O)NCCC(C)C)c(F)cc3C)cc(OCCO)n2)ccn1` [Example 115], the figure is no more than 0.1 µM; as for `CNC(=O)c1cc(-c2cnnc(-c3cc(NC(=O)NCCC(C)(C)C)c(F)cc3C)c2)ccn1` [Example 119], 0.1 to 0.5 µM. The same measure, in the same setting: as for `COC(=O)Nc1cc(-c2cc(-c3cc(NC(=O)NC4CC(C)(C)C4)cnc3C)cc(OCCO)n2)ccn1` [Example 156], the figure is no more than 0.1 µM.
